Data as given in patent publication US20120016011A1, “RNA Interference Mediated Inhibition of Connective Tissue Growth Factor (CTGF) Gene Expression Using Short Interfering Nucleic Acid (siNA)” (Merck Sharp & Dohme Corp., priority 2009, published 2012).
[invAb] = inverted abasic unit; m = 2'-O-methyl; r = 2'-OH (RNA); f = 2'-fluoro

Tests used:
[1] = system: CTGF mRNA; test: CTGF mRNA knockdown (Taqman RT-PCR) after siNA transfection of mouse NIH 3T3 cells; type: cell-based; conditions: mouse NIH3T3 cells, 10 nM siNA, 24 hrs, average of 3 experiments, vs non-targeting control
Experimental: NIH 3T3 (mouse; ATCC cat# CRL-1658): Cells were cultured at 37° C. in the presence of 5% CO2 and grown in Dulbecco's modified Eagle's medium (DMEM) with 4 mM L-glutamine adjusted to contain 1.5 g/L sodium bicarbonate and 4.5 g/L glucose and supplemented with fetal bovine serum at a final concentration of 10%, 100 μg/mL of streptomycin, and 100 U/mL penicillin.
(§1) Cells were plated in all wells of a tissue-culture treated, 96-well plate at a final count of 5000 cells/well in […], of the appropriate culture media. The cells were cultured for 24 hours after plating at 37° C. in the presence of 5% CO2.
(§2) After 24 hours, complexes containing siNA and RNAiMax were created as follows: A solution of RNAiMax diluted 33-fold in OPTI-MEM was prepared. In parallel, solutions of the siNAs for testing were prepared to a final concentration of 120 nM in OPTI-MEM. After incubation of RNAiMax/OPTI-MEM solution at room temperature for 5 min, an equal volume of the siNA solution and the RNAiMax solution were added together for each of the siNAs.
(§3) This solution was incubated at room temperature for 20 minutes. After incubation, 20 uL of the solution was added to each of the relevant wells. The final concentration of siNA in each well was 10 nM and the final volume of RNAiMax in each well was 0.3 ul.
(§4) The time of incubation with the RNAiMax-siNA complexes was 24 hours and there was no change in media between transfection and harvesting, unless otherwise indicated.
(§5) RNA was extracted from a 96-well plate using the TaqMan® Gene Expression Cells-to-CT™ Kit (Cat# 4399002) with a modified protocol. Briefly, a 60 uL (1 plate) or 110 uL (2 plates) of the Lysis Solution with DNase I was dispensed into each well of the Lysis Buffer Plate (twin.tec full skirt plate). The lysis buffer and stop plates were stored at 4° C. until the cells were washed.
(§6) The plate was spun at 1100 rpm for 5 minutes. The culture medium was aspirated and discarded from the wells of the culture plate. The lysis was performed automatically using a BioMek FX instrument and method. After the Biomek method was completed, the lysis plate was incubated for 2 min. at room temperature. The lysis plate can be stored for 2 hours at 4° C., or at −20° C. or −80° C. for two months.
(§7) Each well of the reverse transcription plate required 10 uL of 2× reverse transcriptase Buffer, 1 uL of 20× reverse transcription enzyme and 2 uL of nuclease-free water. The reverse transcription master mix was prepared by mixing 2× reverse transcription buffer, 20× reverse transcription enzyme mix, and nuclease-free water. 13 uL of the reverse transcription master mix was dispensed into each well of the reverse transcription plate (semi-skirted). A separate reverse transcription plate was prepared for each cell plate. The plate was loaded onto a Biomek NX or Biomek FX Dual -96 and the Biomek method was run. The program is programmed to automatically added 7 uL of lysate from the cell lysis procedure described above into each well of the reverse transcription plate. The plate is sealed and spun on a centrifuge (1000 rpm for 30 seconds) to settle the contents to the bottom of the reverse transcription plate. The plate is placed in a thermocycler at 37° C. for 60 min, 95° C. for 5 min, and 4° C. until the plate is removed from the thermocycler. Upon removal, if not used immediately, the plate was frozen at −20° C.
(§8) A series of probes and primers were used to detect the various mRNA transcripts of the genes of β-Actin (human cell line only), and of CTGF and GAPDH in mouse and human cell lines. All Taqman probes and primers for the experiments here-in described were supplied as pre-validated sets by Applied Biosystems, Inc. (see Table 3).
The assays were performed on an ABI 7900 instrument, according to the manufacturer's instructions. A TaqMan Gene Expression Master Mix (provided in the Cells-to-CT™, Applied Biosystems, Cat # 4399002) was used. […]

[2] = system: CTGF mRNA; test: CTGF mRNA knockdown (Taqman RT-PCR) after siNA transfection of human NHLF cells; type: cell-based; conditions: 10 nM siNA, 24 hrs, average of 3 experiments, vs non-targeting control
Experimental: NHLF (Normal human lung fibroblasts; Lonza cat# CC-2512): Cells were cultured at 37° C. in the presence of 5% CO2 and grown in Fibroblast Basal Medium (Lonza cat# CC-3132) supplemented with 2% FBS and growth factors (provided with the kit) and 100 μg/mL of streptomycin and 100 U/mL penicillin.
as §1, §2, §3, §4, §5, §6, §7, §8
The assays were performed on an ABI 7900 instrument, according to the manufacturer's instructions. A TaqMan Gene Expression Master Mix (provided in the Cells-to-CT™, Applied Biosystems, Cat # 4399002) was used. The PCR reactions were carried out at 50° C. for 2 min, 95° C. for 20 min followed by 40 cycles at 95° C. for 15 secs and 60° C. for 1 min. […]

Substance | % KD Mouse [1] | % KD Human [2]
48064-DC: siNA duplex; sense SEQ ID NO: 93 B AGuGGAGAuGccAGGAGAA TTB; antisense SEQ ID NO: 94 UUCuccuGGcAucuccAcuUU (sense AGUGGAGAUGCCAGGAGAATT; antisense UUCUCCUGGCAUCUCCACUUU; sense: DNA at AGT, 2'-fluoro at CU, [invAb] at 5' end, 3' end, backbone not given here; antisense: sugars from the 5' end rrrffffmmfmfffffmffmm, backbone not given here) | 58 ± 3% | 6 ± 6%
48058-DC: siNA duplex; sense SEQ ID NO: 81 B cAGuGGAAcuAcAuuAGuA TTB; antisense SEQ ID NO: 82 UACuAAuGuAGuuccAcuGUU (sense CAGUGGAACUACAUUAGUATT; antisense UACUAAUGUAGUUCCACUGUU; sense: DNA at AGT, 2'-fluoro at CU, [invAb] at 5' end, 3' end, backbone not given here; antisense: sugars from the 5' end rrrfmmfmfrmffffmffmmm, backbone not given here) | 17 ± 3% | 79 ± 3%
48063-DC: siNA duplex; sense SEQ ID NO: 91 B AcAcGAAcucAuuAGAcuA TTB; antisense SEQ ID NO: 92 UAGucuAAuGAGuucGuGuUU (sense ACACGAACUCAUUAGACUATT; antisense UAGUCUAAUGAGUUCGUGUUU; sense: DNA at AGT, 2'-fluoro at CU, [invAb] at 5' end, 3' end, backbone not given here; antisense: sugars from the 5' end rrrfffmmfmmmfffmfmfmm, backbone not given here) | 84 ± 2% | 59 ± 3%
48079-DC: siNA duplex; sense SEQ ID NO: 123 B ucAAGAccuGuGccuGccA TTB; antisense SEQ ID NO: 124 UGGcAGGcAcAGGucuuGAUU (sense UCAAGACCUGUGCCUGCCATT; antisense UGGCAGGCACAGGUCUUGAUU; sense: DNA at AGT, 2'-fluoro at CU, [invAb] at 5' end, 3' end, backbone not given here; antisense: sugars from the 5' end rrrfmmmfmfmmmffffmmmm, backbone not given here) | 17 ± 6% | 21 ± 11%
48049-DC: siNA duplex; sense SEQ ID NO: 63 B cGuGuGcAccGccAAAGAu TTB; antisense SEQ ID NO: 64 AUCuuuGGcGGuGcAcAcGUU (sense CGUGUGCACCGCCAAAGAUTT; antisense AUCUUUGGCGGUGCACACGUU; sense: DNA at AGT, 2'-fluoro at CU, [invAb] at 5' end, 3' end, backbone not given here; antisense: sugars from the 5' end rrrfffmmfmmfmfmfmfmmm, backbone not given here) | −9 ± 6% | 27 ± 2%
48062-DC: siNA duplex; sense SEQ ID NO: 89 B ccAcucuGccAGuGGAGuu TTB; antisense SEQ ID NO: 90 AACuccAcuGGcAGAGuGGUU (sense CCACUCUGCCAGUGGAGUUTT; antisense AACUCCACUGGCAGAGUGGUU; sense: DNA at AGT, 2'-fluoro at CU, [invAb] at 5' end, 3' end, backbone not given here; antisense: sugars from the 5' end rrrfffmffmmfmmmmfmmmm, backbone not given here) | 12 ± 2% | −1 ± 18%
48043-DC: siNA duplex; sense SEQ ID NO: 51 B GAcAuAccGAGcuAAAuuc TTB; antisense SEQ ID NO: 52 GAAuuuAGcucGGuAuGucUU (sense GACAUACCGAGCUAAAUUCTT; antisense GAAUUUAGCUCGGUAUGUCUU; sense: DNA at AGT, 2'-fluoro at CU, [invAb] at 5' end, 3' end, backbone not given here; antisense: sugars from the 5' end rrrfffmmfffmmfmfmffmm, backbone not given here) | 48 ± 0% | 57 ± 7%
48040-DC: siNA duplex; sense SEQ ID NO: 45 B GAGuGGAGcGccuGuuccA TTB; antisense SEQ ID NO: 46 UGGAAcAGGcGcuccAcucUU (sense GAGUGGAGCGCCUGUUCCATT; antisense UGGAACAGGCGCUCCACUCUU; sense: DNA at AGT, 2'-fluoro at CU, [invAb] at 5' end, 3' end, backbone not given here; antisense: sugars from the 5' end rrrmmfmmmfmffffmfffmm, backbone not given here) | −1 ± 3% | 13 ± 18%
48056-DC: siNA duplex; sense SEQ ID NO: 77 B cuGuGccuGccAuuAcAAc TTB; antisense SEQ ID NO: 78 GUUGuAAuGGcAGGcAcAGUU (sense CUGUGCCUGCCAUUACAACTT; antisense GUUGUAAUGGCAGGCACAGUU; sense: DNA at AGT, 2'-fluoro at CU, [invAb] at 5' end, 3' end, backbone not given here; antisense: sugars from the 5' end rrrmfmmfmmfmmmfmfmmmm, backbone not given here) | 20 ± 6% | 6 ± 7%
48053-DC: siNA duplex; sense SEQ ID NO: 71 B cAGAGAGuGAGAGAcAuuA TTB; antisense SEQ ID NO: 72 UAAuGucucucAcucucuGUU (sense CAGAGAGUGAGAGACAUUATT; antisense UAAUGUCUCUCACUCUCUGUU; sense: DNA at AGT, 2'-fluoro at CU, [invAb] at 5' end, 3' end, backbone not given here; antisense: sugars from the 5' end rrrfmffffffmffffffmmm, backbone not given here) | 26 ± 9% | 45 ± 7%
48060-DC: siNA duplex; sense SEQ ID NO: 85 B ucuGucAAccucAGAcAcu TTB; antisense SEQ ID NO: 86 AGUGucuGAGGuuGAcAGAUU (sense UCUGUCAACCUCAGACACUTT; antisense AGUGUCUGAGGUUGACAGAUU; sense: DNA at AGT, 2'-fluoro at CU, [invAb] at 5' end, 3' end, backbone not given here; antisense: sugars from the 5' end rrrmfffmmmmffmmfmmmmm, backbone not given here) | 74 ± 3% | 64 ± 8%
